From patent publication US20120172361A1, “TRIAZINE DERIVATIVES AND THEIR THERAPEUTICAL APPLICATIONS” (CALIFORNIA CAPITAL EQUITY, LLC, priority 2009, published 2012)

molecular target: T1, Aurora-A(h) (Homo sapiens, UniProt O14965); experiment: Aurora-A kinase assay (KinaseProfiler Service Assay Protocols, Millipore; also Kinase Hotspot, Reaction Biology Corp.); assay type: biochemical; settings: compound concentration 1 μM
T1 construct: purchased Millipore (KinaseProfiler service); also Reaction Biology Corp. (Kinase Hotspot)
T1 sequence (O14965 1-403): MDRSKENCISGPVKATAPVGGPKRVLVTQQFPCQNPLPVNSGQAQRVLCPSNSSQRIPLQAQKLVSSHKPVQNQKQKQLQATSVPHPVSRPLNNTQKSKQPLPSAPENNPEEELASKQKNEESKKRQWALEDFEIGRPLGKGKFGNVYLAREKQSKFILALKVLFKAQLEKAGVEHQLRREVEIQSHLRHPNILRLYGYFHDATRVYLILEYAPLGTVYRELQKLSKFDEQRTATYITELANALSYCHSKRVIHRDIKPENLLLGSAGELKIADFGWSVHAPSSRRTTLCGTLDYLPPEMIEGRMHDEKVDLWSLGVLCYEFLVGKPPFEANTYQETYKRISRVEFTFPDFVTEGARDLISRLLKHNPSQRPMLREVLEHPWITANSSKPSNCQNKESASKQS
Procedure: This example illustrated Aurora Kinase Assays of selected Compounds from this invention (referred to Daniele Fancelli et al, J. Med. Chem., 2006, 49 (24), pp 7247-7251). The KinaseProfiler™ Service Assay Protocols (Millipore) were used to test the kinase inhibiting activity of novel compounds from this invention. To do this, the buffer composition was as: 20 mM MOPS, 1 mM EDTA, 0.01% Brij-35, 5% Glycerol, 0.1% β-mercaptoethanol, 1 mg/mL BSA. Test compounds were initially dissolved in DMSO at the desired concentration, then serially diluted to the kinase assay buffer. In a final reaction volume of 25 μL, Aurora-A(h) (5-10 mU) is incubated with 8 mM MOPS pH 7.0, 0.2 mM EDTA, 200 μM LRRASLG (Kemptide), 10 mM MgAcetate and [γ33P-ATP]. The reaction was initiated by the addition of the MgATP mix. After incubation for 40 minute at room temperature, the reaction was stopped by addition of 5 μL of a 3% phosphoric acid solution. 10 μL of the reaction was then spotted onto a P30 filtermat and washed three times for 5 minutes in 50 mM phosphoric acid and once in methanol prior to drying and scintillation counting. Wells containing substrate but no kinase and wells containing a phosphopeptide control were used to set 0% and 100% phosphorylation value, respectively.
Also Kinase Hotspot SM kinase assay was used to test the compounds for IC50 or % inhibitions (Reaction Biology Corp.). Inhibitor IC50 values were determined by titration of compound at the optimal kinase concentration (Kinase EC50).

Structure (SMILES)	inhibition at 1 µM
CCc1nc(Nc2cc(C)[nH]n2)nc(Sc2ccc(C(=O)NC3CC3)cc2)n1 [Example 107]	< 50%
CCC(=O)Nc1ccc(Sc2nc(N3CCN(C)CC3)nc(-n3cc(C)sc3=N)n2)cc1 [Example 109]	< 50%
CCC(=O)Nc1ccc(Sc2nc(C3CC3)nc(-n3cc(C)sc3=N)n2)cc1 [Example 110]	> 50%
Cc1cn(-c2nc(Sc3ccc(NC(=O)c4ccccc4)cc3)nc(N3CCN(C)CC3)n2)c(=N)s1 [Example 112]	> 50%
Cc1cc(Nc2nc(Sc3ccc(C(=O)NC(C)C)cc3)nc(N3CCN(C)CC3)n2)n[nH]1 [Example 115]	> 90%
Cc1cc(Nc2nc(Sc3ccc(C(=O)Nc4ccccc4)cc3)nc(N3CCN(C)CC3)n2)n[nH]1 [Example 116]	> 90%
Cc1cc(Nc2nc(Sc3ccc(C(=O)NCc4ccc(F)cc4)cc3)nc(N3CCN(C)CC3)n2)n[nH]1 [Example 118]	> 90%
Cc1cc(Nc2nc(Sc3ccc(NC(=O)C4CC4)cc3)nc(N(C)C)n2)n[nH]1 [Example 127]	> 90%

Continued, values first:

inhibition at 1 µM	Structure (SMILES)
> 90%	Cc1cnc(Nc2nc(Sc3ccc(NC(=O)c4ccccc4)cc3)nc(N3CCN(C)CC3)n2)s1 [Example 113]
> 90%	CCC(=O)Nc1ccc(Sc2nc(Nc3ncc(C)s3)nc(N3CCN(C)CC3)n2)cc1 [Example 114]
< 50%	Cc1cc(Nc2nc(Sc3ccc(NC(=O)C4CC4)cc3)nc(N3CCN(C)CC3)n2)no1 [Example 120]
< 50%	Cc1ccnc(Nc2nc(Sc3ccc(NC(=O)C4CC4)cc3)nc(N3CCN(C)CC3)n2)n1 [Example 121]
> 50%	Cc1ccc(Nc2nc(Sc3ccc(NC(=O)C4CC4)cc3)nc(N3CCN(C)CC3)n2)nc1 [Example 122]
> 50%	CN1CCN(c2nc(Nc3ccc(Br)cn3)nc(Sc3ccc(NC(=O)C4CC4)cc3)n2)CC1 [Example 123]
